According to patent US20180022780A1, “STABILIZATION ADRENOMEDULLIN DERIVATIVES AND USE THEREOF” (priority 2014, published 2018):
Bridge positions count the residues as written; N and C are the ends. Square brackets hold non-standard residues; d marks the D form. Peptide text beside a SMILES is read from it. Dab = NCC[C@H](N)C(=O)O; Dap = NC[C@H](N)C(=O)O

Each compound was assayed against T1, CLR fused to EYFP and RAMP2 fused to ECFP (Homo sapiens, UniProt O60895+Q16602) (assay: cAMP assay (CRE luciferase reporter, HEK-293 cells transiently co-transfected with CLR and RAMP2)). Conditions: Table 2, cAMP assay; HEK-293, CLR/RAMP2, CRE luciferase, 3 h stimulation, normalized to [G^14]ADM(14-52).
T1 construct: EYFP; ECFP; expressed in transfected cells; host or cells: HEK-293 cells, transient co-transfection
Type: cell-based
Description: HEK-293 cells (human embryonic kidney cells) were cultured in Ham's F-12/DMEM (1/1; v/v) containing 15% FCS under humidified atmosphere at 37° C. and 5% CO2 in 75 cm^2 cell culture flasks.
Cells were cultured in 75 cm^2 flasks to 70-80% confluency. 45 μl Metafectene® Pro was diluted in 900 μl Ham's F-12/DMEM (1/1; v/v) and incubated for 20 min at room temperature. 9000 ng plasmid containing DNA of CLR fused to EYFP and 3000 ng plasmid containing DNA of RAMP2 fused to ECFP were dissolved in 900 μl Ham's F-12/DMEM (1/1; v/v). The plasmid solution was mixed with the Metafectene® Pro solution and incubated for 25 min at room temperature. Medium was removed from the cells and replaced by 6 ml Ham's F-12/DMEM (1/1; v/v) containing 15% FCS. After addition of transfection solution the cells were incubated for 3 h under humidified atmosphere at 37° C. and 5% CO2.
For the second transfection 45 μl Metafectene® Pro was diluted in 900 μl Ham's F-12/DMEM (1/1; v/v) and incubated for 20 min at room temperature. 12000 ng of pGL4.29[luc2P/CRE/Hygro] plasmid containing DNA for the luciferase reporter gene luc2P (with CRE promotor region) were dissolved in 900 μl Ham's F-12/DMEM (1/1; v/v). The plasmid solution was mixed with the Metafectene® Pro solution and incubated for 25 min at room temperature. Medium was removed from the cells and replaced by 6 ml Ham's F-12/DMEM (1/1; v/v) containing 15% FCS. After addition of transfection solution the cells were incubated under humidified atmosphere at 37° C. and 5% CO2 over night.
For the coating of 96-well-plates 50 μl of a Poly-D-Lysine solution (1 ml stock solution of Poly-D-Lysin-hydrobromid/10 ml DPBS) were pipetted in each well and incubated for 40 min. After removal of the Poly-D-Lysine each well was washed with 50 μl DPBS. Transiently transfected cells were detached from the cell culture flask by removal of the medium, twofold washing with 5 m1 DPBS and resuspending in 13 ml Ham's F-12/DMEM (1/1; v/v) containing 15% FCS. 90000 to 120000 cells in 150 μl Ham's F-12/DMEM (1/1; v/v) containing 15% FCS were seeded per well and the plates were incubated under humidified atmosphere at 37° C. and 5% CO2 over night.
For each ligand a serial dilution giving eight different concentrations was prepared using Ham's F-12/DMEM (1/1; v/v). Before stimulation the medium on the cells was replaced by 100 μl Ham's F-12/DMEM (1/1; v/v) and the plates were incubated for 1 h under humidified atmosphere at 37° C. and 5% CO2. For stimulation the medium was removed again and the cells were incubated for 3 h in 80 μl of ligand-solution under humidified atmosphere at 37° C. and 5% CO2. In addition 80 μl of a 5 μM forskolin solution (in Ham's F-12/DMEM (1/1; v/v)) was used as a positive control and 80 μl of Ham's F-12/DMEM (1/1; v/v) as a negative control. Each concentration and the controls were tested as triplicates.
After 3 h of stimulation, the solutions were removed and the cells were washed with 50 μl of Ham's F-12/DMEM (1/1; v/v) per well. After 10 min incubation in 30 μl of Ham's F-12/DMEM (1/1; v/v) at room temperature, 30 μl of luciferase-solution (ONE-Glo™ Luciferase Assay System) was added and the luminescence was directly measured using an Infinite M200 (Tecan).
Data analysis of the luminescence measurement was carried out with GraphPad Prism 5. Therefore the measured luminescence values of each plate were first corrected on the base of the respective average of forskolin stimulation. Afterwards they were normalized to [G^14]ADM(14-52) which was used as standard peptide in every assay. After correction and normalization data was analysed using non-linear regression giving dose-response curves for each tested ligand.

T1 sequence (Q16602 23-461): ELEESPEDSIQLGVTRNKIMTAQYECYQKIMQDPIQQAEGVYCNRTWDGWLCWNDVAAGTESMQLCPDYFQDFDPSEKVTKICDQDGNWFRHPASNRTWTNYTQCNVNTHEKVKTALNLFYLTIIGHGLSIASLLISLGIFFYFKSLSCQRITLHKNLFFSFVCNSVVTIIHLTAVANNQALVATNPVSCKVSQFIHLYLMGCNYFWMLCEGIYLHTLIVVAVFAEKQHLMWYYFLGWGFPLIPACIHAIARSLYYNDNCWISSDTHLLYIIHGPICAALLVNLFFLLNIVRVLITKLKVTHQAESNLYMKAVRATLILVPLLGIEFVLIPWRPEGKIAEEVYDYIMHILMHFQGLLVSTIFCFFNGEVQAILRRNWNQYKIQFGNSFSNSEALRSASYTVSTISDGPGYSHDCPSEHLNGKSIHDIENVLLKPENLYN
T1 sequence (O60895 43-175): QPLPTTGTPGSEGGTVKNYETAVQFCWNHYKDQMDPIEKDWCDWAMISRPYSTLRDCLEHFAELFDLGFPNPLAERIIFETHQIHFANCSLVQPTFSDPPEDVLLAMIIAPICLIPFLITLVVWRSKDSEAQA

| SMILES | EC50 |
| --- | --- |
| CC[C@H](C)[C@H](NC(=O)[C@H](CCC(N)=O)NC(=O)[C@H](Cc1c[nH]cn1)NC(=O)[C@H](C)NC(=O)[C@H](CC(C)C)NC(=O)[C@H](CCCCN)NC(=O)[C@H](CCC(N)=O)NC(=O)[C@@H](NC(=O)[C@@H](NC(=O)[C@@H]1CCCCNC(=O)CC[C@H](NC(=O)CNC(=O)CN)C(=O)N[C@@H](CCCNC(=N)N)C(=O)N[C@@H](Cc2ccccc2)C(=O)NCC(=O)N[C@@H]([C@@H](C)O)C(=O)N1)[C@@H](C)O)C(C)C)C(=O)N[C@@H](Cc1ccc(O)cc1)C(=O)N[C@@H](CCC(N)=O)C(=O)N[C@@H](Cc1ccccc1)C(=O)N[C@H](C(=O)N[C@@H](CC(=O)O)C(=O)N[C@@H](CCCCN)C(=O)N[C@@H](CC(=O)O)C(=O)N[C@@H](CCCCN)C(=O)N[C@@H](CC(=O)O)C(=O)N[C@@H](CC(N)=O)C(=O)N[C@H](C(=O)N[C@@H](C)C(=O)N1CCC[C@H]1C(=O)N[C@@H](CCCNC(=N)N)C(=O)N[C@@H](CO)C(=O)N[C@@H](CCCCN)C(=O)N[C@H](C(=O)N[C@@H](CO)C(=O)N1CCC[C@H]1C(=O)N[C@@H](CCC(N)=O)C(=O)NCC(=O)N[C@@H](Cc1ccc(O)cc1)C(N)=O)[C@@H](C)CC)C(C)C)[C@@H](C)O [Example 1, ((2S,5S,11S,14S,23S)-23-(2-(2-aminoacetamido)acetamido)-5-benzyl-2-(3-guanidinopropyl)-11-((R)-1-hydroxyethyl)-3,6,9,12,20,24-hexaoxo-1,4,7,10,13,19-hexaazacyclotetracosane-14-carbonyl)-L-threonyl-ADM(22-52)] (H-GGERFGTKTVQKLAHQIYQFTDKDKDNVAPRSKISPQGY-NH2; lactam 3-8) | 0.031 µM |
| CC[C@H](C)[C@H](NC(=O)[C@H](CCC(N)=O)NC(=O)[C@H](Cc1c[nH]cn1)NC(=O)[C@H](C)NC(=O)[C@H](CC(C)C)NC(=O)[C@H](CCCCN)NC(=O)[C@H](CCC(N)=O)NC(=O)[C@@H](NC(=O)[C@@H](NC(=O)[C@@H]1CC(=O)NC[C@H](NC(=O)CNC(=O)CN)C(=O)N[C@@H](CCCNC(=N)N)C(=O)N[C@@H](Cc2ccccc2)C(=O)NCC(=O)N[C@@H]([C@@H](C)O)C(=O)N1)[C@@H](C)O)C(C)C)C(=O)N[C@@H](Cc1ccc(O)cc1)C(=O)N[C@@H](CCC(N)=O)C(=O)N[C@@H](Cc1ccccc1)C(=O)N[C@H](C(=O)N[C@@H](CC(=O)O)C(=O)N[C@@H](CCCCN)C(=O)N[C@@H](CC(=O)O)C(=O)N[C@@H](CCCCN)C(=O)N[C@@H](CC(=O)O)C(=O)N[C@@H](CC(N)=O)C(=O)N[C@H](C(=O)N[C@@H](C)C(=O)N1CCC[C@H]1C(=O)N[C@@H](CCCNC(=N)N)C(=O)N[C@@H](CO)C(=O)N[C@@H](CCCCN)C(=O)N[C@H](C(=O)N[C@@H](CO)C(=O)N1CCC[C@H]1C(=O)N[C@@H](CCC(N)=O)C(=O)NCC(=O)N[C@@H](Cc1ccc(O)cc1)C(N)=O)[C@@H](C)CC)C(C)C)[C@@H](C)O [Example 3, ((2S,5S,11S,14S,19S)-19-(2-(2-aminoacetamido)acetamido)-5-benzyl-2-(3-guanidinopropyl)-11-((R)-1-hydroxyethyl)-3,6,9,12,16,20-hexaoxo-1,4,7,10,13,17-hexaazacycloicosane-14-carbonyl)-L-threonyl-ADM(22-52)] (H-GG[Dap]RFGTDTVQKLAHQIYQFTDKDKDNVAPRSKISPQGY-NH2; lactam 3-8) | 0.067 µM |
| CC[C@H](C)[C@H](NC(=O)[C@H](CCC(N)=O)NC(=O)[C@H](Cc1c[nH]cn1)NC(=O)[C@H](C)NC(=O)[C@H](CC(C)C)NC(=O)[C@H](CCCCN)NC(=O)[C@H](CCC(N)=O)NC(=O)[C@@H](NC(=O)[C@@H](NC(=O)[C@@H]1CCNC(=O)C[C@H](NC(=O)CNC(=O)CN)C(=O)N[C@@H](CCCNC(=N)N)C(=O)N[C@@H](Cc2ccccc2)C(=O)NCC(=O)N[C@@H]([C@@H](C)O)C(=O)N1)[C@@H](C)O)C(C)C)C(=O)N[C@@H](Cc1ccc(O)cc1)C(=O)N[C@@H](CCC(N)=O)C(=O)N[C@@H](Cc1ccccc1)C(=O)N[C@H](C(=O)N[C@@H](CC(=O)O)C(=O)N[C@@H](CCCCN)C(=O)N[C@@H](CC(=O)O)C(=O)N[C@@H](CCCCN)C(=O)N[C@@H](CC(=O)O)C(=O)N[C@@H](CC(N)=O)C(=O)N[C@H](C(=O)N[C@@H](C)C(=O)N1CCC[C@H]1C(=O)N[C@@H](CCCNC(=N)N)C(=O)N[C@@H](CO)C(=O)N[C@@H](CCCCN)C(=O)N[C@H](C(=O)N[C@@H](CO)C(=O)N1CCC[C@H]1C(=O)N[C@@H](CCC(N)=O)C(=O)NCC(=O)N[C@@H](Cc1ccc(O)cc1)C(N)=O)[C@@H](C)CC)C(C)C)[C@@H](C)O [Example 4, ((2S,5S,11S,14S,20S)-20-(2-(2-aminoacetamido)acetamido)-5-benzyl-2-(3-guanidinopropyl)-11-((R)-1-hydroxyethyl)-3,6,9,12,18,21-hexaoxo-1,4,7,10,13,17-hexaazacyclohenicosane-14-carbonyl)-L-threonyl-ADM(22-52)] (H-GGDRFGT[Dab]TVQKLAHQIYQFTDKDKDNVAPRSKISPQGY-NH2; lactam 3-8) | 0.021 µM |
| CC[C@H](C)[C@H](NC(=O)[C@H](CCC(N)=O)NC(=O)[C@H](Cc1c[nH]cn1)NC(=O)[C@H](C)NC(=O)[C@H](CC(C)C)NC(=O)[C@H](CCCCN)NC(=O)[C@H](CCC(N)=O)NC(=O)[C@@H](NC(=O)[C@@H](NC(=O)[C@@H]1CCC(=O)NC[C@H](NC(=O)CNC(=O)CN)C(=O)N[C@@H](CCCNC(=N)N)C(=O)N[C@@H](Cc2ccccc2)C(=O)NCC(=O)N[C@@H]([C@@H](C)O)C(=O)N1)[C@@H](C)O)C(C)C)C(=O)N[C@@H](Cc1ccc(O)cc1)C(=O)N[C@@H](CCC(N)=O)C(=O)N[C@@H](Cc1ccccc1)C(=O)N[C@H](C(=O)N[C@@H](CC(=O)O)C(=O)N[C@@H](CCCCN)C(=O)N[C@@H](CC(=O)O)C(=O)N[C@@H](CCCCN)C(=O)N[C@@H](CC(=O)O)C(=O)N[C@@H](CC(N)=O)C(=O)N[C@H](C(=O)N[C@@H](C)C(=O)N1CCC[C@H]1C(=O)N[C@@H](CCCNC(=N)N)C(=O)N[C@@H](CO)C(=O)N[C@@H](CCCCN)C(=O)N[C@H](C(=O)N[C@@H](CO)C(=O)N1CCC[C@H]1C(=O)N[C@@H](CCC(N)=O)C(=O)NCC(=O)N[C@@H](Cc1ccc(O)cc1)C(N)=O)[C@@H](C)CC)C(C)C)[C@@H](C)O [Example 7, ((3S,9S,12S,15S,21S)-15-(2-(2-aminoacetamido)acetamido)-9-benzyl-12-(3-guanidinopropyl)-3-((R)-1-hydroxyethyl)-2,5,8,11,14,18-hexaoxo-1,4,7,10,13,17-hexaazacyclohenicosane-21-carbonyl)-L-threonyl-ADM(22-52)] (H-GG[Dap]RFGTETVQKLAHQIYQFTDKDKDNVAPRSKISPQGY-NH2; lactam 3-8) | 0.0029 µM |
